Drawing on patent US20060100245A1, “Substituted biphenyl-4-carboxylic acid arylamide analogues” (Neurogen Corporation, priority 2002, published 2006), this text covers Ki for 42 compounds.

What is called Ki is a dissociation constant, usually derived from enzyme kinetics or from competition with a known ligand.

T1 sequence (Q8NER1 whole entry): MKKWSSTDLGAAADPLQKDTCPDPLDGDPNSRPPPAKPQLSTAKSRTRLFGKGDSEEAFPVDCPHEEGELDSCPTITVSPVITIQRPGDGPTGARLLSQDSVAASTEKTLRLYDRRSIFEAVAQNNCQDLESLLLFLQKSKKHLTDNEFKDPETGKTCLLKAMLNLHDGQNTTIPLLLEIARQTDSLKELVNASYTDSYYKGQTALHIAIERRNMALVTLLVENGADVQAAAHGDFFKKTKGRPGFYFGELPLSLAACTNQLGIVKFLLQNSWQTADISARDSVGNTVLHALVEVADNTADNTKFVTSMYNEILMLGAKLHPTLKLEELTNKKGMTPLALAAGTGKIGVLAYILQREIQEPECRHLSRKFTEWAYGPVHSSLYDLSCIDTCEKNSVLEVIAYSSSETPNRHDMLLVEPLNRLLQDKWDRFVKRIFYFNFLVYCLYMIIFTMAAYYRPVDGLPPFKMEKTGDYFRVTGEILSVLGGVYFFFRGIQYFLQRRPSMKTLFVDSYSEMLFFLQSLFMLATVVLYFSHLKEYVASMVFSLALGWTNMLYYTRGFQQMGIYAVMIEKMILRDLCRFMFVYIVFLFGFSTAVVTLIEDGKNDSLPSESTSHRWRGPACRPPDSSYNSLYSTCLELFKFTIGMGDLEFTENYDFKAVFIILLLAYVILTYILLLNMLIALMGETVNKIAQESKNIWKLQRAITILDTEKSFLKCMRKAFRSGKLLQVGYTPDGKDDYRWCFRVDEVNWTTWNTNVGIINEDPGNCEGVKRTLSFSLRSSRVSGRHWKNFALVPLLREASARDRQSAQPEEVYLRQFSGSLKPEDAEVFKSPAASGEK

The assay addresses T1, human capsaicin receptor (VR1) (Homo sapiens, UniProt Q8NER1).
T1 construct: transfected with the pBK-CMV expression construct encoding the full length human capsaicin receptor; expressed in transfected cells
Nature of the assay: Capsaicin receptor binding assay ([3H]RTX competition). Conditions: read-out: Ki. The procedure, abridged: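 Membranes from HEK293 cells stably expressing full-length human VR1; competition against 60 pM [3H]RTX, 60 min at 37 °C in HEPES/sucrose buffer pH 7.4 with 0.25 mg/ml BSA. Non-specific binding defined with 1 μM unlabelled RTX; alpha1-acid glycoprotein added after termination on ice.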
On to `CN(C)Cc1cccnc1-c1ccc(C(=O)Nc2ccc(C(C)(C)C)cc2)cc1` [Compound 407, N-(4-tert-Butyl-phenyl)-4-(3-dimethylaminomethyl-pyridin-2-yl)-benzamide], for which the Ki was less than 1 µM. In the case of `CCS(=O)(=O)Nc1cccnc1-c1ccc(C(=O)Nc2ccc(C(C)(C)C)cc2)cc1` [Compound 408, N-(4-tert-Butyl-phenyl)-4-(3-ethanesulfonylamino-pyridin-2-yl)-benzamide] it was less than 1 µM; in that of `CC(C)(C)c1ccc(NC(=O)c2ccc(-c3ncccc3F)cc2)cc1` [Compound 409, N-(4-tert-Butyl-phenyl)-4-(3-fluoro-pyridin-2-yl)-benzamide], less than 1 µM. To `CC(C)(C)c1ccc(NC(=O)c2ccc(-c3ncccc3C=O)cc2)cc1` [Compound 410, N-(4-tert-Butyl-phenyl)-4-(3-formyl-pyridin-2-yl)-benzamide] belongs less than 1 µM; to `CC(C)(C)c1ccc(NC(=O)c2ccc(-c3ncccc3NO)cc2)cc1` [Compound 411, N-(4-tert-Butyl-phenyl)-4-(3-hydroxyamino-pyridin-2-yl)-benzamide], less than 1 µM; to `CC(C)(C)c1ccc(NC(=O)c2ccc(-c3ncccc3CO)cc2)cc1` [Compound 412, N-(4-tert-Butyl-phenyl)-4-(3-hydroxymethyl-pyridin-2-yl)-benzamide], less than 1 µM. In the case of `CC(C)(C)c1ccc(NC(=O)c2ccc(-c3ncccc3NS(C)(=O)=O)cc2)cc1` [Compound 413, N-(4-tert-Butyl-phenyl)-4-(3-methanesulfonylamino-pyridin-2-yl)-benzamide] it was less than 1 µM; in that of `CC(C)(C)c1ccc(NC(=O)c2ccc(-c3ncccc3[N+](=O)[O-])cc2)cc1` [Compound 415, N-(4-tert-Butyl-phenyl)-4-(3-nitro-pyridin-2-yl)-benzamide], less than 1 µM; in that of `CC(C)(C)c1ccc(NC(=O)c2ccc(-c3ccncc3[N+](=O)[O-])cc2)cc1` [Compound 416, N-(4-tert-Butyl-phenyl)-4-(3-nitro-pyridin-4-yl)-benzamide], less than 1 µM. With `CC(C)(C)c1ccc(NC(=O)c2ccc(-c3ncccc3NS(=O)(=O)Cc3ccccc3)cc2)cc1` [Compound 417, N-(4-tert-Butyl-phenyl)-4-(3-phenylinethanesulfonylamino-pyridin-2-yl)-benzamide], the Ki is less than 1 µM.

Take `CCCOc1cccnc1-c1ccc(C(=O)Nc2ccc(C(C)(C)C)cc2)cc1` [Compound 418, N-(4-tert-Butyl-phenyl)-4-(3-propoxy-pyridin-2-yl)-benzamide]: the Ki was less than 1 µM. In the case of `CCCNc1cccnc1-c1ccc(C(=O)Nc2ccc(C(C)(C)C)cc2)cc1` [Compound 419, N-(4-tert-Butyl-phenyl)-4-(3-propylamino-pyridin-2-yl)-benzamide] it was less than 1 µM; in that of `CC(C)(C)c1ccc(NC(=O)c2ccc(-c3ncccc3CN3CCCC3)cc2)cc1` [Compound 420, N-(4-tert-Butyl-phenyl)-4-(3-pyrrolidin-1-ylmethyl-pyridin-2-yl)-benzamide], less than 1 µM. In the case of `CC(C)(C)c1ccc(NC(=O)c2ccc(-c3ncccc3C(F)(F)F)cc2)cc1` [Compound 421, N-(4-tert-Butyl-phenyl)-4-(3-trifluoromethyl-pyridin-2-yl)-benzamide] it was less than 1 µM; in that of `CC(C)(C)c1ccc(NC(=O)c2ccc(-c3cc(C(F)(F)F)ccn3)cc2)cc1` [Compound 422, N-(4-tert-Butyl-phenyl)-4-(4-trifluoromethyl-pyridin-2-yl)-benzamide], less than 1 µM; in that of `CC(C)(C)c1ccc(NC(=O)c2ccc(-c3ncccc3NS(=O)(=O)c3ccc(F)cc3)cc2)cc1` [Compound 423, N-(4-tert-Butyl-phenyl)-4-[3-(4-fluoro-benzenesulfonylamino)-pyridin-2-yl]-benzamide], less than 1 µM. In the case of `Cc1nnc(-c2cccnc2-c2ccc(C(=O)Nc3ccc(C(C)(C)C)cc3)cc2)o1` [Compound 424, N-(4-tert-Butyl-phenyl)-4-[3-(5-methyl-[1,3,4]oxadiazol-2-yl)-pyridin-2-yl]-benzamide] it was less than 1 µM; in that of `CN(c1cccnc1-c1ccc(C(=O)Nc2ccc(C(C)(C)C)cc2)cc1)S(C)(=O)=O` [Compound 425, N-(4-tert-Butyl-phenyl)-4-[3-(methanesulfonyl-methyl-amino)-pyridin-2-yl]-benzamide], less than 1 µM; in that of `CC(C)(C)c1ccc(NC(=O)c2ccc(-c3ncccc3N(S(C)(=O)=O)S(C)(=O)=O)cc2)cc1` [Compound 426, N-(4-tert-Butyl-phenyl)-4-[3-(N,N-dimethanesulfonyl)amino-pyridin-2-yl]-benzamide], less than 1 µM. Regarding `CC(C)(C)c1ccc(NC(=O)c2ccc(-c3ccncc3N(S(C)(=O)=O)S(C)(=O)=O)cc2)cc1` [Compound 427, N-(4-tert-Butyl-phenyl)-4-[3-(N,N-dimethanesulfonyl)amino-pyridin-4-yl]-benzamide], the inhibition constant (Ki) is less than 1 µM. In the case of `Cc1ccc(S(=O)(=O)Nc2cccnc2-c2ccc(C(=O)Nc3ccc(C(C)(C)C)cc3)cc2)cc1` [Compound 428, N-(4-tert-Butyl-phenyl)-4-[3-(toluene-4-sulfonylamino)-pyridin-2-yl]-benzamide] it was less than 1 µM; in that of `CC(C)(C)c1ccc(NC(=O)c2ccc(C3CCCCN3)cc2)cc1` (stereo not drawn) [Compound 429, N-(4-tert-Butyl-phenyl)-4-piperidin-2-yl-benzamide], less than 1 µM.

In the case of `CC(C)(C)c1ccc(NC(=O)c2ccc(-c3ccccn3)cc2)cc1` [Compound 430, N-(4-tert-Butyl-phenyl)-4-pyridin-2-yl-benzamide], the Ki is less than 1 µM.

For `CC(C)(C)c1ccc(NC(=O)c2ccc(-c3cccnc3)cc2)cc1` [Compound 431, N-(4-tert-Butyl-phenyl)-4-pyridin-3-yl-benzamide], the Ki is less than 1 µM. In the case of `CC(C)(C)c1ccc(NC(=O)c2ccc(-c3ccncc3)cc2)cc1` [Compound 432, N-(4-tert-Butyl-phenyl)-4-pyridin-4-yl-benzamide] it was less than 1 µM. In the case of `CC(C)(C)c1ccc(NC(=O)c2ccc(-c3ncccn3)cc2)cc1` [Compound 433, N-(4-tert-Butyl-phenyl)-4-pyrimidin-2-yl-benzamide] it was less than 1 µM; in that of `CC(C)(C)c1ccc(NC(=O)c2ccc(-c3cnc4ccccc4c3)cc2)cc1` [Compound 434, N-(4-tert-Butyl-phenyl)-4-quinolin-3-yl-benzamide], less than 1 µM.

Regarding `CC(C)(C)c1ccc(NC(=O)c2cnc(-c3ccccc3Cl)c(Cl)c2)cc1` [Compound 435, N-(4-tert-Butyl-phenyl)-5-chloro-6-(2-chloro-phenyl)-nicotinamide], the Ki is less than 1 µM. In the case of `CC(C)(C)c1ccc(NC(=O)c2cnc(-c3ccccc3)c(Cl)c2)cc1` [Compound 436, N-(4-tert-Butyl-phenyl)-5-chloro-6-phenyl-nicotinamide] it was less than 1 µM; in that of `CC(C)(C)c1ccc(NC(=O)c2ccc(-c3ccc(F)cc3F)nc2)cc1` [Compound 437, N-(4-tert-Butyl-phenyl)-6-(2,4-difluoro-phenyl)-nicotinamide], less than 1 µM. To `CC(C)(C)c1ccc(NC(=O)c2ccc(-c3c(F)cccc3F)nc2)cc1` [Compound 438, N-(4-tert-Butyl-phenyl)-6-(2,6-difluoro-phenyl)-nicotinamide] belongs less than 1 µM. To `Cc1cccc(C)c1-c1ccc(C(=O)Nc2ccc(C(C)(C)C)cc2)cn1` [Compound 439, N-(4-tert-Butyl-phenyl)-6-(2,6-dimethyl-phenyl)-nicotinamide] belongs less than 1 µM; to `CCOc1ccc(-c2ccc(C(=O)Nc3ccc(C(C)(C)C)cc3)cn2)c(Cl)c1` [Compound 440, N-(4-tert-Butyl-phenyl)-6-(2-chloro-4-ethoxy-phenyl)-nicotinamide], less than 1 µM. Regarding `CC(C)(C)c1ccc(NC(=O)c2cnc(-c3ccccc3Cl)cc2O)cc1` [Compound 441, N-(4-tert-Butyl-phenyl)-6-(2-chloro-phenyl)-4-hydroxy-nicotinamide], the inhibition constant (Ki) is less than 1 µM. To `CC(C)(C)c1ccc(NC(=O)c2ccc(-c3ccccc3Cl)nc2)cc1` [Compound 442, N-(4-tert-Butyl-phenyl)-6-(2-chloro-phenyl)-nicotinamide] belongs less than 1 µM; to `CC(C)(C)c1ccc(NC(=O)c2ccc(-c3ccccc3F)nc2)cc1` [Compound 443, N-(4-tert-Butyl-phenyl)-6-(2-fluoro-phenyl)-nicotinamide], less than 1 µM; to `CC(C)(C)c1ccc(NC(=O)c2ccc(-c3ccccc3CO)nc2)cc1` [Compound 444, N-(4-tert-Butyl-phenyl)-6-(2-hydroxymethyl-phenyl)-nicotinamide], less than 1 µM. In the case of `CC(C)(C)c1ccc(NC(=O)c2ccc(-c3ccccc3NS(C)(=O)=O)nc2)cc1` [Compound 445, N-(4-tert-Butyl-phenyl)-6-(2-methanesulfonylamino-phenyl)-nicotinamide] it was less than 1 µM. In the case of `CC(C)(C)c1ccc(NC(=O)c2ccc(-c3ccccc3[N+](=O)[O-])nc2)cc1` [Compound 446, N-(4-tert-Butyl-phenyl)-6-(2-nitro-phenyl)-nicotinamide] it was less than 1 µM; in that of `CC(C)(C)c1ccc(NC(=O)c2ccc(-c3ccccc3C(F)(F)F)nc2)cc1` [Compound 447, N-(4-tert-Butyl-phenyl)-6-(2-trifluoromethyl-phenyl)-nicotinamide], less than 1 µM. In the case of `CC(C)(C)c1ccc(NC(=O)c2ccc(-c3cccc(F)c3)nc2)cc1` [Compound 448, N-(4-tert-Butyl-phenyl)-6-(3-fluoro-phenyl)-nicotinamide], the Ki was less than 1 µM.

For `COc1cccc(-c2ccc(C(=O)Nc3ccc(C(C)(C)C)cc3)cn2)c1` [Compound 449, N-(4-tert-Butyl-phenyl)-6-(3-methoxy-phenyl)-nicotinamide], the Ki is less than 1 µM.
